Data on six compounds can be found in US11046728B2, “Neuroactive steroids, compositions, and uses thereof” (Sage Therapeutics, Inc., priority 2013, dated 2021).

Each structure is given as a SMILES string. pIC50: −log10 of the molar value. Some results are limits rather than exact numbers.

The target in the first experiment is TBPS binding, rat brain cortical membranes in the presence of 5 μM GABA. Nature of the experiment: 35S-TBPS displacement (steroid inhibition of TBPS binding). Conditions: read-out: 35S-TBPS Radioligand Displacement (IC50). As to the method:
TBPS binding assays using rat brain cortical membranes in the presence of 5 μM GABA has been described (Gee et al, J. Pharmacol. Exp. Then 1987, 241, 346-353; Hawkinson et al, Mol. Pharmacol. 1994, 46, 977-985). Briefly, cortices are rapidly removed following decapitation of carbon dioxide-anesthetized Sprague-Dawley rats (200-250 g). The cortices are homogenized in 10 volumes of ice-cold 0.32 M sucrose using a glass/teflon homogenizer and centrifuged at 1500×g for 10 min at 4° C. The resultant supernatants are centrifuged at 10,000×g for 20 min at 4° C. to obtain the P2 pellets. The P2 pellets are resuspended in 200 mM NaCl/50 mM Na—K phosphate pH 7.4 buffer and centrifuged at 10,000×g for 10 min at 4° C. This washing procedure is repeated twice and the pellets are resuspended in 10 volumes of buffer. Aliquots (100 μL) of the membrane suspensions are incubated with 3 nM [^35S]-TBPS and 5 μL, aliquots of test drug dissolved in dimethyl sulfoxide (DMSO) (final 0.5%) in the presence of 5 μM GABA. The incubation is brought to a final volume of 1.0 mL with buffer. Nonspecific binding is determined in the presence of 2 μM unlabeled TBPS and ranged from 15 to 25%. Following a 90 min incubation at room temp, the assays are terminated by filtration through glass fiber filters (Schleicher and Schuell No. 32) using a cell harvester (Braudel) and rinsed three times with ice-cold buffer. Filter bound radioactivity is measured by liquid scintillation spectrometry. Non-linear curve fitting of the overall data for each drug averaged for each concentration is done using Prism (GraphPad). […] The concentration of test compound producing 50% inhibition (IC50) of specific binding and the maximal extent of inhibition (Imax) are determined for the individual experiments with the same model used for the overall data and then the means±SEMs of the individual experiments are calculated.
Various compounds are or can be screened to determine their potential as modulators of ^35S-TBPS binding in vitro. These assays are or can be performed in accordance with the above discussed procedures.
(In general: Loss of bound radioactivity is the signal in a displacement assay; it reports binding, not function.)
Broadly, the pIC50 is −log10 of the IC50, conventionally taken in molar units. For the compound `CO[C@H]1C[C@@]2(C)[C@@H](CC[C@H]3[C@@H]4CC[C@H](C#N)[C@@]4(C)CC(=O)[C@@H]32)C[C@@H]1O` [Compound 3], the pIC50 was under 6.30.
As for `C[C@]12CC[C@@H](O)C[C@H]1CC[C@@H]1[C@@H]2[C@@H](O)C[C@]2(C)[C@@H](C#N)CC[C@@H]12` [Compound 9], the pIC50 was under 6.30.
Turning to `CCCO[C@H]1C[C@@]2(C)[C@@H](CC[C@@H]3[C@@H]2CC[C@]2(C)[C@@H](C#N)CC[C@@H]32)C[C@@H]1O` [Compound 16], the pIC50 was over 8.00.
Same read-out and setting: with `CCO[C@H]1C[C@@]2(C)[C@@H](CC[C@H]3[C@@H]4CC[C@H](C#N)[C@@]4(C)CC(=O)[C@@H]32)C[C@@H]1O` [Compound 19] the figure was 7.00 to 7.30.
Same read-out and setting: next, `CO[C@H]1C[C@]2(C)[C@@H](C#N)CC[C@H]2[C@@H]2CC[C@H]3C[C@H](O)CC[C@]3(C)[C@H]21` [Compound 31]: 7.30 to 8.00.
Turning to `CO[C@H]1C[C@]2(C)[C@@H](C#N)CC[C@H]2[C@@H]2CC[C@H]3C[C@H](O)[C@@H](C)C[C@]3(C)[C@H]21` [Compound 51], the pIC50 was 7.30 to 8.00.

The target of a further experiment is T1, GABA receptor α1β2γ2 (Homo sapiens, UniProt P14867+P47870).
T1 construct: expressed in transfected cells; host or cells: LTK cells, stably transfected
T1 sequence (P14867 28-456): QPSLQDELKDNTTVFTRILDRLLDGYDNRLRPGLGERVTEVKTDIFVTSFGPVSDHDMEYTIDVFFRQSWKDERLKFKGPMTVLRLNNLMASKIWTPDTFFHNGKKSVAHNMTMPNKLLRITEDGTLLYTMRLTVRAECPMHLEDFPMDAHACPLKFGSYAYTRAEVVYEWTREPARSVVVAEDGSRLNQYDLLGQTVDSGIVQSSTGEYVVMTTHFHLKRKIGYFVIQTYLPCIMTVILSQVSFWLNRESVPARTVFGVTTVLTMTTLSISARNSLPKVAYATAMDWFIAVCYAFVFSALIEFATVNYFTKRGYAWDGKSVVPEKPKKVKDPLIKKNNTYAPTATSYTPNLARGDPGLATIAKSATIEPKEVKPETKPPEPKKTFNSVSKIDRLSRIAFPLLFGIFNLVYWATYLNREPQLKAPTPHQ
T1 sequence (P47870 25-512 limits assumed): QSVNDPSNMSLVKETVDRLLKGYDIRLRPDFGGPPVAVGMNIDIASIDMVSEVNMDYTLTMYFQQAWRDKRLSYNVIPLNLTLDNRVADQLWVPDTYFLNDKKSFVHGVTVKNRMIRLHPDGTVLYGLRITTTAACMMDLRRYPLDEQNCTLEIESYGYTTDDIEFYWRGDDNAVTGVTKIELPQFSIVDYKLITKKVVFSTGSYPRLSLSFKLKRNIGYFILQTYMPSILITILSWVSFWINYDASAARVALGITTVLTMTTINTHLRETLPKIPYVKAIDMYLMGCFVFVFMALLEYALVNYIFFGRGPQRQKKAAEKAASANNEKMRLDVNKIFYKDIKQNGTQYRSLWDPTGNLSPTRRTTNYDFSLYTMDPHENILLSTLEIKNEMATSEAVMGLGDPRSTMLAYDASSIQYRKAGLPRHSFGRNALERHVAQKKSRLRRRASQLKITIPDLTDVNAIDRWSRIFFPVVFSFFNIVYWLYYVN
T1 sequence (P18507 40-475 partner): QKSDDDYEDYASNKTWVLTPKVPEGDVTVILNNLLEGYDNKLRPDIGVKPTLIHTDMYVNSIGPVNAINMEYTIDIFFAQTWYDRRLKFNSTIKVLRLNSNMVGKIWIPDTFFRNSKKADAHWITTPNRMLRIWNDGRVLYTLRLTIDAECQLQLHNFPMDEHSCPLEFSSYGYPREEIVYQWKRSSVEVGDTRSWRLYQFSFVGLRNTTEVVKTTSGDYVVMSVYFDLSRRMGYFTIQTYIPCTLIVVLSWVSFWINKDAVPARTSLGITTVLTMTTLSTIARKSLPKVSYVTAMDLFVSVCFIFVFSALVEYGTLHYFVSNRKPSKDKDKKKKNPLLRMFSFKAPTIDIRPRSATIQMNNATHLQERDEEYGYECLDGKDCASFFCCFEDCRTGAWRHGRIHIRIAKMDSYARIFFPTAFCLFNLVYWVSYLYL
Nature of the experiment: Patch clamp electrophysiology, Qpatch in Ltk cells. It is filed as cell-based. Particulars: 10 μM test article, GABA EC20 = 2 μM, read-out: GABA (α1β2γ2) Qpatch in Ltk, % efficacy at 10 μM. On the technique in general: In patch-clamp work, channel activity is measured electrically.
For `CO[C@H]1C[C@@]2(C)[C@@H](CC[C@H]3[C@@H]4CC[C@H](C#N)[C@@]4(C)CC(=O)[C@@H]32)C[C@@H]1O` [Compound 3], the Emax at 10 µM fell in the range of 100 to 500%.
The same measure, in the same setting: with `C[C@]12CC[C@@H](O)C[C@H]1CC[C@@H]1[C@@H]2[C@@H](O)C[C@]2(C)[C@@H](C#N)CC[C@@H]12` [Compound 9] the figure was 100 to 500%; with `CCCO[C@H]1C[C@@]2(C)[C@@H](CC[C@@H]3[C@@H]2CC[C@]2(C)[C@@H](C#N)CC[C@@H]32)C[C@@H]1O` [Compound 16], over 500%.
Still for that read-out and setting: next, `CCO[C@H]1C[C@@]2(C)[C@@H](CC[C@H]3[C@@H]4CC[C@H](C#N)[C@@]4(C)CC(=O)[C@@H]32)C[C@@H]1O` [Compound 19]: over 500%.
Still for that read-out and setting: next, `CO[C@H]1C[C@]2(C)[C@@H](C#N)CC[C@H]2[C@@H]2CC[C@H]3C[C@H](O)CC[C@]3(C)[C@H]21` [Compound 31]: over 500%; `CO[C@H]1C[C@]2(C)[C@@H](C#N)CC[C@H]2[C@@H]2CC[C@H]3C[C@H](O)[C@@H](C)C[C@]3(C)[C@H]21` [Compound 51]: over 500%.

For the next experiment, the target named is T2, GABA receptor α4β3δ (Homo sapiens, UniProt P28472+P48169).
T2 construct: expressed in transfected cells; host or cells: CHO cells, transiently transfected
T2 sequence (P48169 36-554): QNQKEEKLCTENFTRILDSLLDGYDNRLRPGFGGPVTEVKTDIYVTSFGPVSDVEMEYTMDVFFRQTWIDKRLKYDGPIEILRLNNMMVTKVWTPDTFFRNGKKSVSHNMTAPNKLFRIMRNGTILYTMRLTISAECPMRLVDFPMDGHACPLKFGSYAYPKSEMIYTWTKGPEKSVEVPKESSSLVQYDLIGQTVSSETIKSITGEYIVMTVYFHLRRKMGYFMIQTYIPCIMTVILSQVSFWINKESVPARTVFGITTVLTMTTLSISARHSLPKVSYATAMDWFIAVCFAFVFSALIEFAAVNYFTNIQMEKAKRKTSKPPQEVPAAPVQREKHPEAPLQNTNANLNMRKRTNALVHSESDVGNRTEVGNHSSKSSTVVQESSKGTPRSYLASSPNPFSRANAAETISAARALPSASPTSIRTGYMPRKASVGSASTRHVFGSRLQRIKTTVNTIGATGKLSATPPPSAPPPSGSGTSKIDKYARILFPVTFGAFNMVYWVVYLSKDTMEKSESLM
T2 sequence (P28472 26-473): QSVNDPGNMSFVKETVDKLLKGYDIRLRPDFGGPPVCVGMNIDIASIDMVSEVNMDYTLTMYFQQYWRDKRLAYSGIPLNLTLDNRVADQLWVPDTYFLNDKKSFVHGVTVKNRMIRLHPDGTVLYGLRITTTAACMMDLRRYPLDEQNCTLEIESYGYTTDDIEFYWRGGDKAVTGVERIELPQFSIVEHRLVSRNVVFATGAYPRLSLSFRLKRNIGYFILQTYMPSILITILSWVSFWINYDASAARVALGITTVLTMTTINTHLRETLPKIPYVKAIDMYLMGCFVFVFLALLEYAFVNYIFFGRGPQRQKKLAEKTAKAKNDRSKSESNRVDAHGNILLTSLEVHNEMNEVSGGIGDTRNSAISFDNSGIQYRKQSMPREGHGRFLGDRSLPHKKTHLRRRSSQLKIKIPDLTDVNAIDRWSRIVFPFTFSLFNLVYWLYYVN
T2 sequence (O14764 25-452 partner): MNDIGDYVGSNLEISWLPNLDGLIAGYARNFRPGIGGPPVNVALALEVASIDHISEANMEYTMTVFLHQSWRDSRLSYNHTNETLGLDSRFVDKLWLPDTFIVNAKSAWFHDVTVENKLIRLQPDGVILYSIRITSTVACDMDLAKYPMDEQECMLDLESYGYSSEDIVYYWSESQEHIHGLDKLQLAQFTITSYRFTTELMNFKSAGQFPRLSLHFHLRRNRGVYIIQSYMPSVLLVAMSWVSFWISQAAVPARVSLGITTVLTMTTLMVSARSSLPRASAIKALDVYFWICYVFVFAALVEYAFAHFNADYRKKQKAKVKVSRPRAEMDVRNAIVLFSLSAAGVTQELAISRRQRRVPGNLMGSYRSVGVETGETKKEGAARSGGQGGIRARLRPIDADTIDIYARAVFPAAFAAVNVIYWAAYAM
Nature of the experiment: Patch clamp electrophysiology, manual patch in CHO cells. The experiment is classed as cell-based. Particulars: 10 μM test article, GABA EC20 = 2 μM, read-out: GABA (α4β3δ) Manual patch in CHO, % efficacy at 10 μM.
As for `CO[C@H]1C[C@@]2(C)[C@@H](CC[C@H]3[C@@H]4CC[C@H](C#N)[C@@]4(C)CC(=O)[C@@H]32)C[C@@H]1O` [Compound 3], the Emax at 10 µM lay within 100 to 500%.
Still for that read-out and setting: with `C[C@]12CC[C@@H](O)C[C@H]1CC[C@@H]1[C@@H]2[C@@H](O)C[C@]2(C)[C@@H](C#N)CC[C@@H]12` [Compound 9] the figure was 10 to 100%.
Same read-out and setting: with `CCCO[C@H]1C[C@@]2(C)[C@@H](CC[C@@H]3[C@@H]2CC[C@]2(C)[C@@H](C#N)CC[C@@H]32)C[C@@H]1O` [Compound 16] the figure was 100 to 500%.
For the compound `CO[C@H]1C[C@]2(C)[C@@H](C#N)CC[C@H]2[C@@H]2CC[C@H]3C[C@H](O)CC[C@]3(C)[C@H]21` [Compound 31], the Emax at 10 µM was in the range of 100 to 500%.

For another experiment, the system named is male Sprague Dawley rats. Put plainly: Loss of righting reflex in rats. It is filed as in vivo, rat. Particulars: intravenous bolus 5 mg/kg. On the procedure: The plasma pharmacokinetics and a qualitative assessment of sedation were obtained in male Sprague Dawley rats according to the following procedure. Rats were dosed by intravenous bolus dose (60 seconds) via the foot dorsal vein at 5 mg/kg in an appropriate vehicle. In order to assess sedation, rats were gently restrained by hand to a lateral position for dose administration. […] If the animal was unable to return to an upright position, the time was recorded as the onset of loss of righting reflex (LRR). […] Sluggish or incomplete righting twice consecutively within a 30 second interval qualifies as a loss of righting reflex. After onset of LRR, animals were assessed every 5 minutes in the same manner. Recovery of righting reflex is defined as the ability of a rat to right itself completely within 20 seconds of being placed in dorsal recumbency. The duration of LRR is defined as the time interval between LRR and the return of righting reflex.
With `CO[C@H]1C[C@@]2(C)[C@@H](CC[C@H]3[C@@H]4CC[C@H](C#N)[C@@]4(C)CC(=O)[C@@H]32)C[C@@H]1O` [Compound 3], the “Duration of LRR (min)” value is “A (“A” indicates the duration of LRR to be <10 min)”.
As to `CCCO[C@H]1C[C@@]2(C)[C@@H](CC[C@@H]3[C@@H]2CC[C@]2(C)[C@@H](C#N)CC[C@@H]32)C[C@@H]1O` [Compound 16], the “Duration of LRR (min)” value is recorded as “C (“C” indicates the duration of LRR to be >20 minutes)”.
Same read-out and setting: next, `CCO[C@H]1C[C@@]2(C)[C@@H](CC[C@H]3[C@@H]4CC[C@H](C#N)[C@@]4(C)CC(=O)[C@@H]32)C[C@@H]1O` [Compound 19]: “B (“B” indicates the duration of LRR to be 10-20 minutes)”; `CO[C@H]1C[C@]2(C)[C@@H](C#N)CC[C@H]2[C@@H]2CC[C@H]3C[C@H](O)CC[C@]3(C)[C@H]21` [Compound 31]: “B (“B” indicates the duration of LRR to be 10-20 minutes)”.
On the same count and under the same terms, with `CO[C@H]1C[C@]2(C)[C@@H](C#N)CC[C@H]2[C@@H]2CC[C@H]3C[C@H](O)[C@@H](C)C[C@]3(C)[C@H]21` [Compound 51] the entry was “C (“C” indicates the duration of LRR to be >20 minutes)”.

The subject of a further experiment is male beagle dogs. Put plainly: Duration of lateral recumbence in dogs. It is filed as in vivo, dog. Particulars: intravenous bolus, administered at 5 mg/kg. On the procedure:
The plasma pharmacokinetics and a qualitative assessment of sedation were obtained in male beagle dogs according to the following procedure. Dogs were dosed by intravenous bolus dose (60 seconds) via the cephalic vein at doses ranging from 2 to 5 mg/kg in an appropriate vehicle. In order to assess sedation, dogs were gently restrained for dose administration. If decreased muscle tone, limb weakness, or head drop was observed during dose administration, onset of lateral recumbence was recorded. […] Sluggish or incomplete righting to the sternal position qualifies as lateral recumbence. After onset of lateral recumbence, animals were assessed every 5 minutes in the same manner. The duration of lateral recumbence was recorded as the time interval between onset of lateral recumbence and the return to sternal position.
For `CO[C@H]1C[C@@]2(C)[C@@H](CC[C@H]3[C@@H]4CC[C@H](C#N)[C@@]4(C)CC(=O)[C@@H]32)C[C@@H]1O` [Compound 3], the “Duration of Lateral Recumbence (min)” value is on record as “A (“A” indicates the duration to be >20 minutes)”.
The same measure, in the same setting: with `CCO[C@H]1C[C@@]2(C)[C@@H](CC[C@H]3[C@@H]4CC[C@H](C#N)[C@@]4(C)CC(=O)[C@@H]32)C[C@@H]1O` [Compound 19] the entry was “A (“A” indicates the duration to be >20 minutes)”; with `CO[C@H]1C[C@]2(C)[C@@H](C#N)CC[C@H]2[C@@H]2CC[C@H]3C[C@H](O)CC[C@]3(C)[C@H]21` [Compound 31], “A (“A” indicates the duration to be >20 minutes)”.
